Measured values taken from PMC5561212, “In Vitro Micropatterned Human Pluripotent Stem Cell Test (µP-hPST) for Morphometric-Based Teratogen Screening” (Scientific Reports, 2017).
In brackets after ≈: the same amount, converted by molar mass. Entries after “also recorded” stand apart in the source; their conditions may differ. Read-outs that look alike come from different tables or passages of the source.

How the values were obtained:
[1] = system: hPSC; design: method as in PMID 24123775; settings: cited from earlier work
[2] = cited from earlier work; for In vivo teratogenicity: Table 1, known teratogenicity; for In vivo teratogenicity (in words): Supplementary Tables S2, S3
[3] = cited from earlier work
[4] = system: adult human dermal fibroblasts (aHDF); experiment: Cytotoxicity assay (MTS), general cytotoxicity; type: cell-based; settings: aHDF cells, 3 days, 25% inhibitory concentration
Method: (§1) A set of 30 compounds of known teratogenicity was selected to establish and validate the µP-hPST (Table 1). The compounds include equal number of non-teratogens and teratogens, and differ in chemical property and therapeutic usage. Before tested in the µP-hPSC colonies, the cytotoxicity profile of each compound was acquired. Two cell lines, hPSC line H9 and adult human dermal fibroblast line aHDF, were tested to represent embryonic cytotoxicity and general cytotoxicity of the compound respectively (Supplementary Figs S1, S2). The IC25 values, which were the 25% inhibitory concentrations, were calculated as the highest non-cytotoxic concentrations of the compound (Table 2, Fig. 1).
(§2) Human embryonic cell line H9 (WiCell Research Institute, Inc) and adult human dermal fibroblast (aHDF, Lonza) were cultured as previously described. Briefly, H9 cells were cultured in tissue culture plates coated with Matrigel^TM (354277, BD Biosciences) in mTeSR^TM1 medium (05850, StemCell^TM Technologies). Dispase (07923, StemCell^TM Technologies) treatment and mechanical scraping were applied during normal subculture. The aHDF cells was cultured in DMEM medium (10569-010, Gibco), supplemented with 10% FBS (SV30160.03, Thermo Scientific Hyclone) and 1% Pen-Strep (09367-34, Nacalai Tesque). Cells were subcultured every 5–6 days using 0.25% Trypsion-EDTA (25200-114, Gibco) to detach the cells.
(§3) The adverse effect of test compounds on cell proliferation and viability was detected using CellTiter 96® AQueous One Solution Cell Proliferation Assay (MTS, G3580, Promega). 10,000 H9 cells or 500 aHDF cells were seeded in 96-well tissue culture plates. For H9 cells, Matrigel^TM was coated before seeding. For each compound, 8 concentrations from serial 5-fold dilutions were tested besides the vehicle controls. Cells were cultured for 3 days with medium half change every day before cell viability was measured. Each drug was tested in three independent runs and its IC25 values (inhibitory concentrations which can cause 25% of reduction in cell number) were acquired by logistic regression using OriginPro 9.

[5] = system: human embryonic cell line H9; experiment: Cytotoxicity assay (MTS), embryonic cytotoxicity; type: cell-based; settings: H9 cells, 3 days, 25% inhibitory concentration
Method: as §1, §2, §3

[6] = system: µP-hPSC colonies (H9) under mesoendoderm induction; experiment: µP-hPST: mesoendoderm pattern disruption in µP-hPSC colonies and two-step teratogen classification; settings: for Teratogenicity in µP-hPST / Teratogenicity in µP-hPST (in words): two-step classification rule; for Mesoendoderm pattern disruption seen in T fluorescent images: 3 days of compound exposure, in words
[7] = system: human pluripotent stem cells; design: method as in PMID 24154490; settings: cited from earlier work
[8] = human plasma, ref U.S. FDA website, EMA website or published journals (Supplementary Table S1)

| Compound | Teratogenicity in other in vitro assays [1] | In vivo teratogenicity [2] | Cmax [3, 8] [ng/mL] | IC25aHDF [4] [µg/mL] | IC25H9 [5] [µg/mL] | Teratogenicity in µP-hPST [6] | In vivo teratogenicity (in words) [2] | Classification in the Targeted Biomarker Assay (in words) [1] | Teratogenicity in µP-hPST (in words) [6] | Mesoendoderm pattern disruption seen in T fluorescent images [6] | Defects caused in newborns [2] | Teratogenicity in other in vitro assays [7] | Anomalies known to be induced [2] | Cmax ([3]; compounds tested previously) [ng/mL] |
| --- | --- | --- | --- | --- | --- | --- | --- | --- | --- | --- | --- | --- | --- | --- |
| CC(=O)Nc1ccc(O)cc1 [Acetaminophen] | NON[6] | NON | 24000 | 40 (≈ 265 µM) | 171 (≈ 1130 µM) | – | – | – | – | – | – | – | – | – |
| Nc1nc2c(ncn2COCCO)c(=O)[nH]1 [Acyclovir] | – | – | 5650 | 285 (≈ 1270 µM) | 267 (≈ 1190 µM) | – | – | – | – | – | – | – | – | – |
| CC1(C)S[C@@H]2[C@H](NC(=O)[C@H](N)c3ccc(O)cc3)C(=O)N2[C@H]1C(=O)O [Amoxicillin] | NON[6] | NON | 14400 | >1000 | >1000 | NON | Non-teratogen | – | – | – | – | – | – | – |
| O=C1O[C@H]([C@@H](O)CO)C(O)=C1O [Ascorbic acid] | – | – | 156000 | 63 (≈ 358 µM) | 105 (≈ 596 µM) | NON | – | – | – | – | – | – | – | – |
| COc1ccccc1Oc1c(NS(=O)(=O)c2ccc(C(C)(C)C)cc2)nc(-c2ncccn2)nc1OCCO [Bosentan] | NON[6] | TER | 8170 | 19.9 (≈ 36.1 µM) | 43.8 (≈ 79.4 µM) | TER | Teratogen | misclassified | correctly classify | – | – | – | – | – |
| CS(=O)(=O)OCCCCOS(C)(=O)=O [Busulfan] | TER[6] | TER | 1220 | 19.2 (≈ 78 µM) | 0.5 (≈ 2.03 µM) | TER | Teratogen | – | – | much smaller and concentrated mesoendoderm patterns were observed | – | – | – | – |
| Cn1c(=O)c2c(ncn2C)n(C)c1=O [Caffeine] | – | – | 10000 | 129 (≈ 664 µM) | 85.4 (≈ 440 µM) | – | – | – | – | – | – | – | – | – |
| NC(=O)N1c2ccccc2C=Cc2ccccc21 [Carbamazepine] | TER[6] | TER | 11000 | 28 (≈ 119 µM) | 21 (≈ 88.9 µM) | TER | Teratogen | – | detect the teratogenic effects | decrease both cell differentiation and migration | neural tube defects, cardiovascular and urinary tract anomalies, and cleft palate | – | – | – |
| CC/C(=C(/CC)c1ccc(O)cc1)c1ccc(O)cc1 [Diethylstilbestrol] | – | TER | 5.6 | 6.1 (≈ 22.7 µM) | 8.8 (≈ 32.8 µM) | NON | Teratogen | – | misclassified as a non-teratogen | promote cell migration | – | TER[7] | – | – |
| CN(C)CCOC(c1ccccc1)c1ccccc1 [Diphenhydramine] | – | – | – | 31.4 (≈ 123 µM) | 2.4 (≈ 9.4 µM) | NON | – | – | – | – | – | – | – | – |
| O=C1NC(=O)C(c2ccccc2)(c2ccccc2)N1 [Diphenylhydantoin] | NON[6] | TER | 20000 | 140 (≈ 555 µM) | 56 (≈ 222 µM) | TER | Teratogen | misclassified | correctly classify; also recorded: detect the teratogenic effects | slow down or prevent mesoendoderm cell migration | – | – | orofacial, limb, cardiovascular and neurobehavioral anomalies | – |
| CN(C)CCOC(C)(c1ccccc1)c1ccccn1 (stereo not shown) [Doxylamine] | – | – | 120 | 45 (≈ 166 µM) | 87 (≈ 322 µM) | NON | – | – | – | – | – | – | – | – |
| Nc1nc2ncc(CNc3ccc(C(=O)N[C@@H](CCC(=O)O)C(=O)O)cc3)nc2c(=O)[nH]1 [Folic acid] | – | – | 270 | 894 (≈ 2030 µM) | 888 (≈ 2010 µM) | NON | – | – | – | – | – | – | – | – |
| COc1cc2ncnc(Nc3ccc(F)c(Cl)c3)c2cc1OCCCN1CCOCC1 [Gefitinib] | – | – | 930 | 1.66 (≈ 3.71 µM) | 4.6 (≈ 10.3 µM) | TER | – | – | – | – | – | – | – | – |
| Cc1ccc(NC(=O)c2ccc(CN3CCN(C)CC3)cc2)cc1Nc1nccc(-c2cccnc2)n1 [Imatinib] | – | – | 1560 | 2.7 (≈ 5.47 µM) | 19.5 (≈ 39.5 µM) | – | – | – | – | – | – | – | – | – |
| NNC(=O)c1ccncc1 [Isoniazid] | NON[6] | NON | 3090 | 488 (≈ 3560 µM) | 370 (≈ 2700 µM) | NON | – | – | – | – | – | – | – | – |
| CCOC(=O)N1CCC(=C2c3ccc(Cl)cc3CCc3cccnc32)CC1 [Loratadine] | NON[6] | NON | – | 3.2 (≈ 8.36 µM) | 24 (≈ 62.7 µM) | – | – | – | – | – | – | – | – | – |
| CC[C@H](C)C(=O)O[C@H]1C[C@@H](C)C=C2C=C[C@H](C)[C@H](CC[C@@H]3C[C@@H](O)CC(=O)O3)[C@H]21 [Lovastatin] | NON[6] | TER | 10 | 0.68 (≈ 1.68 µM) | – | TER | Teratogen | misclassified | correctly classify | promote cell migration | – | – | – | – |
| Cn1cc[nH]c1=S [Methimazole] | – | TER | – | >1000 | 252 (≈ 2210 µM) | TER | Teratogen | – | – | promote mesoendoderm differentiation while decrease collective cell migration | – | – | – | – |
| CCN(CC)CCNC(=O)c1cc(Cl)c(N)cc1OC [Metoclopramide] | NON[6] | NON | 40 | 154 (≈ 514 µM) | 162 (≈ 540 µM) | NON | Non-teratogen | – | – | – | – | – | – | – |
| CC1(C)S[C@@H]2[C@H](NC(=O)Cc3ccccc3)C(=O)N2[C@H]1C(=O)O [Penicillin G] | – | – | – | – | – | – | – | – | Non-teratogen | – | – | – | – | 400000 |
| N[C@@H](CC(=O)N1CCn2c(nnc2C(F)(F)F)C1)Cc1cc(F)c(F)cc1F [Sitagliptin] | NON[6] | NON | 390 | 77.1 (≈ 189 µM) | 359 (≈ 881 µM) | NON | – | – | – | – | – | – | – | – |
| CCN(CC)CCNC(=O)c1c(C)[nH]c(/C=C2\C(=O)Nc3ccc(F)cc32)c1C [Sunitinib] | – | TER | 30 | – | 0.89 (≈ 2.23 µM) | TER | Teratogen | – | – | promote mesoendoderm differentiation while decrease collective cell migration | – | TER[7] | – | – |
| Cc1ncc(C[n+]2csc(CCO)c2C)c(N)n1 [Thiamine] | NON[6] | NON | 110 | >1000 | >1000 | NON | Non-teratogen | – | – | slow down or prevent mesoendoderm cell migration | – | – | – | – |
